Results: ChEMBL document CHEMBL4145454, “Discovery of 2,4-diarylaminopyrimidines bearing a resorcinol motif as novel ALK inhibitors to overcome the G1202R resistant mutation” (Eur J Med Chem, 2018)
pIC50: −log10 of the molar value. Calls of active or inactive are those of the source. No cut-off for these calls is given here.

How the values were obtained:
[1] = biological target: T1, ALK tyrosine kinase receptor (Homo sapiens, UniProt Q9UM73)
NCI-H3122 [2] = test: cells; conditions: Homo sapiens, NCI-H3122, 72 h
Description: Antiproliferative activity against human NCI-H3122 cells after 72 hrs by SRB or CCK8 assay

[3] = biological target: ALK tyrosine kinase receptor (Homo sapiens, UniProt Q9UM73, L1152R)
BaF3 [4] = test: cells; conditions: Mus musculus, BaF3, 72 h
Description: Antiproliferative activity against IL3-stimulated mouse BAF3 cells after 72 hrs by SRB or CCK8 assay

BaF3 [5] = test: cells; conditions: Mus musculus, BaF3, 72 h; remark: listed apart in the source
Description: Antiproliferative activity against mouse BAF3 cells harboring CD74-ROS1 after 72 hrs by SRB or CCK8 assay

NCI-H3122 [6] = test: Induction of apoptosis in human NCI-H3122 cells at 20 to 80 nM after 48 hrs by Annexin V-FITC/propidium iodide staining based flow cytometry; assay type: functional, cell-based
HCC78 = test: cells; conditions: Homo sapiens, HCC78, 72 h
Description: Antiproliferative activity against human HCC78 cells harboring SLC34A2-ROS1 after 72 hrs by SRB or CCK8 assay

[7] = biological target: ALK tyrosine kinase receptor (Homo sapiens, UniProt Q9UM73, G1202R)
[8] = biological target: ALK tyrosine kinase receptor (Homo sapiens, UniProt Q9UM73, T1151M)
[9] = biological target: ALK tyrosine kinase receptor (Homo sapiens, UniProt Q9UM73, S1206Y)
[10] = biological target: ALK tyrosine kinase receptor (Homo sapiens, UniProt Q9UM73, R1275Q)
BaF3 [11] = test: cells; conditions: Mus musculus, BaF3, 72 h; remark: listed apart in the source
Description: Antiproliferative activity against mouse BAF3 cells harboring CD74-ROS1 G2032R mutant after 72 hrs by SRB or CCK8 assay

KARPAS-299 = test: cells; conditions: Homo sapiens, KARPAS-299, 72 h
Description: Antiproliferative activity against human KARPAS299 cells harboring NPM-ALK after 72 hrs by SRB or CCK8 assay

SU-DHL-1 [12] = test: Induction of apoptosis in human SU-DHL1 cells at 20 to 80 nM after 48 hrs by Annexin V-FITC/propidium iodide staining based flow cytometry; assay type: functional, cell-based
SU-DHL-1 [13] = test: cells; conditions: Homo sapiens, SU-DHL-1, 72 h
Description: Antiproliferative activity against human SU-DHL1 cells harboring NPM-ALK after 72 hrs by SRB or CCK8 assay

BaF3 [14] = test: cells; conditions: Mus musculus, BaF3, 72 h; remark: listed apart in the source
Description: Antiproliferative activity against mouse BAF3 cells harboring EML4-ALK after 72 hrs by SRB or CCK8 assay

BaF3 [15] = test: cells; conditions: Mus musculus, BaF3, 72 h; remark: listed apart in the source
BaF3 [16] = test: cells; conditions: Mus musculus, BaF3, 72 h; remark: listed apart in the source
[17] = biological target: T1, ALK tyrosine kinase receptor; conditions: NCI-H3122, 20 to 200 nM
Description: Inhibition of ALK in human NCI-H3122 cells assessed as reduction in Akt phosphorylation at S473 residue at 20 to 200 nM after 1 hr by Western blot analysis

[18] = biological target: T1, ALK tyrosine kinase receptor; conditions: 20 to 200 nM
Description: Inhibition of ALK in human SU-DHL1 cells assessed as reduction in ERK phosphorylation at T202//Y204 residues at 20 to 200 nM after 1 hr by Western blot analysis

[19] = biological target: T1, ALK tyrosine kinase receptor; conditions: 20 to 200 nM; remark: listed apart in the source
Description: Inhibition of ALK in human SU-DHL1 cells assessed as reduction in STAT3 phosphorylation at Y705 residue at 20 to 200 nM after 1 hr by Western blot analysis

[20] = biological target: T1, ALK tyrosine kinase receptor; conditions: 20 to 200 nM; remark: listed apart in the source
Description: Inhibition of ALK in human SU-DHL1 cells assessed as reduction in Akt phosphorylation at S473 residue at 20 to 200 nM after 1 hr by Western blot analysis

[21] = biological target: T1, ALK tyrosine kinase receptor; conditions: NCI-H3122, 20 to 200 nM; remark: listed apart in the source
Description: Inhibition of ALK phosphorylation at Y1278 residue in human NCI-H3122 cells at 20 to 200 nM after 1 hr by Western blot analysis

[22] = biological target: T1, ALK tyrosine kinase receptor; conditions: NCI-H3122, 20 to 200 nM; remark: listed apart in the source
Description: Inhibition of ALK in human NCI-H3122 cells assessed as reduction in ERK phosphorylation at T202//Y204 residues at 20 to 200 nM after 1 hr by Western blot analysis

[23] = biological target: T1, ALK tyrosine kinase receptor; conditions: NCI-H3122, 20 to 200 nM; remark: listed apart in the source
Description: Inhibition of ALK in human NCI-H3122 cells assessed as reduction in STAT3 phosphorylation at Y705 residue at 20 to 200 nM after 1 hr by Western blot analysis

[24] = biological target: T1, ALK tyrosine kinase receptor; conditions: 20 to 200 nM; remark: listed apart in the source
Description: Inhibition of ALK phosphorylation at Y1278 residue in human SU-DHL1 cells at 20 to 200 nM after 1 hr by Western blot analysis

Row | SMILES | pIC50 [1] | pIC50 (NCI-H3122 [2]) | pIC50 [7] | further results
1 | CC(C)c1cc(C(=O)NCC(=O)Nc2cccc(Nc3ncc(Cl)c(Nc4ccccc4S(=O)(=O)C(C)C)n3)c2)c(O)cc1O | 9.10 | 7.08 | – | –
2 | COc1ccc(NC(=O)CNC(=O)c2cc(C(C)C)c(O)cc2O)cc1Nc1ncnc(Nc2ccccc2S(=O)(=O)C(C)C)n1 | 8.89 | 7.19 | – | –
3 | COc1ccc(NC(=O)CNC(=O)c2cc(C(C)C)c(OC)cc2O)cc1Nc1ncc(Cl)c(Nc2ccccc2S(=O)(=O)C(C)C)n1 | 7.98 | 7.86 | – | –
4 | COc1ccc(NC(=O)CNC(=O)c2cc(C(C)C)c(O)cc2O)cc1Nc1ncc(Cl)c(Nc2ccccc2S(=O)(=O)C(C)C)n1 | 8.77 | 8.16 | 8.74 | pIC50 [3]: 7.97; pIC50 (BaF3 [4]): < 6.00; pIC50 (BaF3 [5]): 9.70; Activity (NCI-H3122 [6]): Active; pIC50 (HCC78): > 8.82; pIC50 [8]: 8.66; pIC50 [9]: 8.29; pIC50 [10]: 8.57; pIC50 (BaF3 [11]): 9.70; pIC50 (KARPAS-299): 7.98; Activity (SU-DHL-1 [12]): Active; pIC50 (SU-DHL-1 [13]): 8.32; pIC50 (BaF3 [14]): > 8.82; pIC50 (BaF3 [15]): > 8.82; pIC50 (BaF3 [16]): > 8.82
5 | COc1ccc(NC(=O)CNC(=O)c2ccc(O)c(C(C)C)c2)cc1Nc1ncc(Cl)c(Nc2ccccc2S(=O)(=O)C(C)C)n1 | 8.85 | 8.04 | 8.21 | –
6 | CC(C)Oc1ccc(NC(=O)CNC(=O)c2cc(C(C)C)c(O)cc2O)cc1Nc1ncc(Cl)c(Nc2ccccc2S(=O)(=O)C(C)C)n1 | 8.48 | 7.16 | – | –
7 | COc1ccc(NC(=O)C(Cc2ccccc2)NC(=O)c2cc(C(C)C)c(O)cc2O)cc1Nc1ncc(Cl)c(Nc2ccccc2S(=O)(=O)C(C)C)n1 (stereo not given) | 8.11 | 7.24 | 7.19 | –
8 | COc1ccc(NC(=O)CNC(=O)c2cc(C(C)C)ccc2O)cc1Nc1ncc(Cl)c(Nc2ccccc2S(=O)(=O)C(C)C)n1 | 9.15 | 8.40 | 7.82 | –
9 | Cc1cc(Nc2ncc(Cl)c(Nc3ccccc3S(=O)(=O)C(C)C)n2)c(OC(C)C)cc1C1CCNCC1 [CERITINIB] | – | 7.02 | – | inhibition [17]: Active; pIC50 (BaF3 [4]): < 6.00; inhibition [18]: Active; pIC50 (BaF3 [5]): 6.63; pIC50 (HCC78): < 6.00; inhibition [19]: Active; inhibition [20]: Active; pIC50 (BaF3 [11]): < 6.00; inhibition [21]: Active; inhibition [22]: Active; pIC50 (KARPAS-299): 7.08; inhibition [23]: Active; inhibition [24]: Active; pIC50 (SU-DHL-1 [13]): 6.91; pIC50 (BaF3 [14]): 7.97; pIC50 (BaF3 [15]): 6.14; pIC50 (BaF3 [16]): 7.26
10 | COc1ccc(NC(=O)C(NC(=O)c2cc(C(C)C)c(O)cc2O)C(C)C)cc1Nc1ncc(Cl)c(Nc2ccccc2S(=O)(=O)C(C)C)n1 (stereo not given) | < 6.00 | < 6.00 | – | –
11 | COc1ccc(NC(=O)C2(NC(=O)c3cc(C(C)C)c(O)cc3O)CC2)cc1Nc1ncc(Cl)c(Nc2ccccc2S(=O)(=O)C(C)C)n1 | 6.89 | 6.60 | – | –
12 | CC(C)c1cc(C(=O)NCC(=O)Nc2ccc(F)c(Nc3ncc(Cl)c(Nc4ccccc4S(=O)(=O)C(C)C)n3)c2)c(O)cc1O | 9.00 | 8.14 | 7.81 | –
13 | CC(C)Oc1ccc(NC(=O)CNC(=O)c2cc(C(C)C)c(O)cc2O)cc1Nc1nccc(Nc2ccccc2S(=O)(=O)C(C)C)n1 | 8.38 | 6.91 | – | –
14 | COc1ccc(NC(=O)CNC(=O)c2cc(C(C)C)c(O)cc2O)cc1Nc1ncc(Cl)c(Nc2ccccc2P(C)(C)=O)n1 | 8.82 | 7.00 | 8.11 | –
15 | COc1cc(OC)c(C(C)C)cc1C(=O)NCC(=O)Nc1cccc(Nc2ncc(Cl)c(Nc3ccccc3S(=O)(=O)C(C)C)n2)c1 | < 6.00 | < 6.00 | – | –
16 | CC(C)c1cc(C(=O)NCC(=O)Nc2cccc(Nc3ncc(Cl)c(Nc4cc(S(=O)(=O)C(C)C)nn4C)n3)c2)c(O)cc1O | 6.58 | < 6.00 | – | –
17 | C[C@H]1Oc2cc(cnc2N)-c2c(nn(C)c2C#N)CN(C)C(=O)c2ccc(F)cc21 [LORLATINIB] | – | 8.11 | – | pIC50 (BaF3 [4]): < 6.00; pIC50 (BaF3 [5]): 8.92; pIC50 (HCC78): 6.45; pIC50 (BaF3 [11]): 6.58; pIC50 (KARPAS-299): 8.52; pIC50 (SU-DHL-1 [13]): 8.31; pIC50 (BaF3 [14]): 8.54; pIC50 (BaF3 [15]): 6.70; pIC50 (BaF3 [16]): 7.37
18 | COc1ccc(NC(=O)CNC(=O)c2cc(C(C)C)c(O)cc2OC)cc1Nc1ncc(Cl)c(Nc2ccccc2S(=O)(=O)C(C)C)n1 | 7.32 | 7.89 | – | –
19 | COc1ccc(NC(=O)C(C)NC(=O)c2cc(C(C)C)c(O)cc2O)cc1Nc1ncc(Cl)c(Nc2ccccc2S(=O)(=O)C(C)C)n1 (stereo not given) | 9.15 | 8.17 | – | –
20 | COc1ccc(Nc2ncc(Cl)c(Nc3ccccc3S(=O)(=O)C(C)C)n2)cc1NC(=O)CNC(=O)c1cc(C(C)C)c(O)cc1O | 8.59 | < 6.00 | – | –
